# Experimental data: patent US6737059B1, “Methods of inhibiting inflammatory processes and alleviating symptoms associated with multiple sclerosis” (Board of Regents of the University Washington, priority 1992, dated 2004)
# “And” between values parts separate entries of the source, which are not always exact repeats. Identical values can stand only once.
# Legend:
# white blood cell = assay: WBC counts in blood of EAE animals; type: in vivo, Macaca fascicularis; details: individual animals
# Excerpt: The hematologic hallmarks of untreated EAE are a progressive leukocytosis and lymphopenia prior to the onset of clinical signs. The leukocytosis can represent as much as a four-fold increase in the number of circulating PMNC and no significant changes in the frequency or absolute numbers of monocytes, eosinophils, or basophils. Following successful treatments of EAE, the absolute numbers of lymphocytes and PMNC return, fairly soon after the initiation of treatment, to pre-sensitization levels. Thus, continuous monitoring of blood leukocytes provides a useful measure of disease progression which complements the clinical evaluation and magnetic resonance imaging.
# Blood was drawn on a weekly basis until the onset of clinical disease and then more frequently. One-half ml was sent to the hematology laboratory for WBC and differential counts. The results are set out in Table 3 below providing white blood cell number (×10^3) per mm^3 whole blood.
# Two Macaca fascicularis monkeys were then involved in a study to preliminarily determine the ability of mAb 23F2G to alleviate EAE symptoms. The EAE induction procedures were essentially as in Example 1. Two animals, Nos. 89161 and 89186, sensitized to 1.0 mg of purified monkey basic protein and developed hyperacute hemorrhagic EAE 18 and 20 days post sensitization, respectively. Animal 89161 died within 12 hours of onset and before treatment with dexamethasone could be initiated. Animal 89186 was treated for a week with both dexamethasone (3 days at 4 mg/kg, 2 days at 2 mg/kg and 2 days at 1 mg/kg) and mAb 23F2G (7 days at 2 mg/kg, i.v.). The animal improved dramatically with complete resolution of paralysis three days after initiation of treatment. Lesions detected by MRI resolved four days after cessation of treatment and the animal improved dramatically with complete resolution of paralysis. Eight days following cessation of treatment, the animal relapsed and was sacrificed. […] The white blood cell count rose from 22.7×10^3 on the day of clinical onset to 82×10^3 /mm^3 on the last day of treatment.
# [1] = test system: Experimental Allergic Encephalomyelitis (EAE); assay: EAE in macaques: clinical evaluation and survival; type: in vivo, Macaca fascicularis
# Procedure: Eighteen male monkeys Macaca fascicularis weighing 2-3 kg were sensitized to myelin basic protein (BP) by the intra dermal injection of 0.1 ml of an emulsion containing 5.0 mg of monkey BP and 0.5 mg of heat-killed M. tuberculosis. Each animal was obtained and housed by the Regional Primate Research Center at the University of Washington, Seattle. The Primate Center conforms to the National Institutes of Health Guide for the Care and Use of laboratory Animals. Ten days after sensitization to BP, each animal was outfitted with a femoral catheter and tether to facilitate blood sampling and the administration of treatments or anesthetics for magnetic resonance imaging (MRI). The animals were maintained on intravenous heparin (18 units/hour) to prevent blood clots from forming in the intra venous lines.
# The animals were randomly admitted to specific treatment groups before they were sensitized to BP. This was done to schedule MRI and to prevent the severity of clinical signs at the onset from influencing the choice of therapy. Primate Center personnel, responsible for deciding when animals should be treated or sacrificed, were blinded regarding the treatment history of each animal. Table 1 below provides a statement of criteria for determination of clinical signs and grades of EAE in the animals.
# At the onset of definite clinical signs (± to +) six EAE animals received a bolus injection of mAb 60.3 (2 mg/kg) and dexamethasone (4 mg/kg). […]. Sever acute EAE occurs in approximately 25 % of animals induced to develop EAE and is caused by edema in areas involving or impinging upon the brain stem or cerebral cortex. Following injection of the bolus, these six animals were treated by continuous infusion of mAb 60.3 (2 mg/kg/day) for seven days. […]. Six control EAE animals were treated only with dexamethasone, following the same protocol outlined above, and six additional controls were treated with continuous infusion of saline.
# Animals that improved and/or stabilized as a result of therapy were sacrificed six weeks after the onset of clinical signs. Animals that experienced a clinical relapse (clinical signs ≧++) some time after the cessation of treatment and before six weeks had elapsed, were sacrificed shortly after the onset of the relapse. […] The statistical significance of differences in survival times in each treatment group was determined by two-tailed Student t analysis.
# Disease progression was monitored by a combination of clinical evaluation, blood analysis and magnetic resonance imaging. Clinical evaluations were performed twice daily. […]
structure (smiles),measurement,setting,value
C[C@@H]1C[C@H]2[C@@H]3CCC4=CC(=O)C=C[C@]4(C)[C@@]3(F)[C@@H](O)C[C@]2(C)[C@@]1(O)C(=O)CO [dexamethasone],white blood cell number,white blood cell; Day 2,3.1 ×10^3 per mm^3 whole blood and 5.4 ×10^3 per mm^3 whole blood
same,white blood cell number,white blood cell; Day 4,3.7 ×10^3 per mm^3 whole blood and 3.6 ×10^3 per mm^3 whole blood
same,white blood cell number,white blood cell; Day 7 (end of treatment),3.8 ×10^3 per mm^3 whole blood and 7.0 ×10^3 per mm^3 whole blood
same,white blood cell number,white blood cell; Day 10,8.7 ×10^3 per mm^3 whole blood and 10.7 ×10^3 per mm^3 whole blood
same,white blood cell number,white blood cell; Day 14,7.9 ×10^3 per mm^3 whole blood
same,white blood cell number,white blood cell; Onset of clinical signs (start of treatment),9.6 ×10^3 per mm^3 whole blood and 9.0 ×10^3 per mm^3 whole blood and 14.6 ×10^3 per mm^3 whole blood and 32.2 ×10^3 per mm^3 whole blood and 12.4 ×10^3 per mm^3 whole blood and 16.3 ×10^3 per mm^3 whole blood
same,white blood cell number,white blood cell; Presens (baseline before sensitization),4.7 ×10^3 per mm^3 whole blood and 6.1 ×10^3 per mm^3 whole blood and 6.7 ×10^3 per mm^3 whole blood and 13.5 ×10^3 per mm^3 whole blood and 8.9 ×10^3 per mm^3 whole blood and 14.1 ×10^3 per mm^3 whole blood
same,mean survival time,"[1]; after onset, group of six EAE macaques",7 days
same,survival after onset (range of group),[1]; group of six EAE macaques,1 to 17 days
same,Grade (severity of clinical signs at time of sacrifice),"[1]; individual EAE macaques, 7-day treatment from onset of clinical signs, listed as dex alone",++
same,Survival (days of survival post-onset),"[1]; individual EAE macaques, 7-day treatment from onset of clinical signs, stable animals sacrificed at six weeks (42 days), listed as dex alone",17 days and 1 days (2×) and 2 days and 13 days and 9 days
